From patent publication US7772197B2, “1,3,5-triazines for treatment of viral diseases” (1,3,5-Triazines for Treatment of Viral Diseases, priority 2002, dated 2010)

Experiments:
[1] = tested on: HIV-1 RTMDR1, with 74V, 41L, 106A and 215Y mutations; assay: Sensitivity of NRTI-resistant HIV strain RTMDR1, MT-2 cells; type: cell-based; conditions: Human immunodeficiency virus 1, MT2
Method: (§1) 0.1 ml of a 3×10^5 cells/ml MT-2 cell suspension were seeded in 96-well plates at 3×10^4 cells/well. The compounds to be assayed were diluted in a separate 96-well at ten times (10×) the concentration needed for the screen. 22 μl of the 10× compounds was then added to the wells in triplicate except for six control wells, containing uninfected MT-2 cells alone (3 wells) and untreated HIV-infected MT-2 cells (3 wells). This was followed by the addition of HIV-1 at an MOI of 0.01, except for the three wells serving as the uninfected control. 0.1 ml of cRPMI was added to the uninfected well instead of virus. After the addition of virus, the 96-well plate was centrifuged at 1,200×g for two hours to enhance the adsorption of the virus by the MT-2 cells (see, e.g., O'Doherty, J. Virol. 74:10074-10080 (2000)). After the centrifugation step, the 96-well plate was then incubated in a 37° C. incubator containing 5% CO2 for three days. At the end of this time period the virus and cells were mixed by gentle pipetting followed by a 1 minute spin at 600×g to pellet the cells. The supernatant of each well was then serially diluted 1,000-fold into new 96-well plates to serve as inoculum for the next passage and assayed by ELISA for the amount of p24 produced. The next passage was performed as described above, except that the virus used to infect the cells was derived from the 1,000-fold dilution plate.
(§2) To determine if there is resistance of HIV NRTI resistant strains to mutagenic nucleoside analogues, NRTI resistant strains were grown in the presence of 5-aza-dC to determine whether the EC50 for 5-aza-dC is different from the WT strain (HIV-1 LAI). […] Growth of HIV NRTI resistant strains in the presence of the appropriate concentration of NRTI was used as a positive control.
Three HIV NRTI resistant strains (HIV-1 LAI-M184V, HIV-1 RTMDR1, with 74V, 41L, 106A and 215Y mutations, and HIV-1 RTMC, with 67N, 70R, 215F and 219Q mutations) were used to test the effectiveness of 5-aza-dC. […]

[2] = tested on: HIV-1 RTMC, with 67N, 70R, 215F and 219Q mutations; assay: Sensitivity of NRTI-resistant HIV strain RTMC, MT-2 cells; type: cell-based; conditions: Human immunodeficiency virus 1, MT2
Method: as §1, §2
Three HIV NRTI resistant strains (HIV-1 LAI-M184V, HIV-1 RTMDR1, with 74V, 41L, 106A and 215Y mutations, and HIV-1 RTMC, with 67N, 70R, 215F and 219Q mutations) were used to test the effectiveness of 5-aza-dC. […] Mutations include: M41L, E44D, A62V, K65R, D67N, T69DN, T69S_SS, K70R, L74V, V75I, F77L, Y115F, F116Y, V118I, Q151M, M184V, L210W, T215F and K219QE.
The effectiveness of DHAdC was tested against wild-type HIV strains and NRTI resistant HIV strains as described in Example 2. The following strains were tested: HIV-1 LAI, wild-type; HIV-I LAI-M184V-M184V mutation with resistance to lamivudine (3TC); HIV-1 RTMDR1-74V, 41L, 106A and 215Y mutations with resistance to zidovudine, didanosine, nevirapine and other non-nucleoside reverse transcriptase inhibitors; and HIV-1 RTMC-67N, 70R, 215F and 219Q with resistance to zidovudine.

HIV = assay: In vitro passaging assay of DHAdC; type: cell-based; conditions: 100 nM, quadruplicate
Method: as §1, with “22 μl of the 10× compounds was then added to the wells in triplicate except for six control wells, containing uninfected MT-2 cells alone (3 wells) and untreated HIV-infected MT-2 cells (3 wells).” left out, “plate. […]” for “plate.”

[3] = tested on: hgprt gene in CHO (Chinese Hamster Ovary) cells; assay: hgprt assay, mutagenesis of cellular DNA, 6-thioguanine selection; type: cell-based; conditions: 1 mM, data not shown
Method: (Data not shown.) An hgprt assay was also performed to test mutagenesis of cellular DNA by DHAdC. The assay was performed on CHO (Chinese Hamster Ovary) cells and mutants were selected for resistance to 6-thioguanine (6-TG). EMS (ethyl methyl sulfonate), a known mutagen, was used as a positive control.

[4] = Toxicology in SCID-Hu Thy/Liv mice; type: in vivo; conditions: up to 100 mg/kg/day subcutaneously, 21 days
Method: After completion of this toxicology experiment, SN1212 was tested in HIV infected SCID-Hu mice. […] The discordance between viral infectivity and conventional surrogate markers of viral load, such as p24 or HIV RNA, is not surprising, as it has also been observed in vitro, and reflects the increased proportion of non-infectious viral particles in the presence of SN1212. It is also interesting to note that, of the treated groups, the immunologic profile of the SN1212 groups most closely resemble that of the uninfected group. This is compatible with the finding that infection with less “fit” viruses provides a relative clinical benefit by preserving cellular immunity.

## NC1=NC(=O)N([C@H]2C[C@H](O)[C@@H](CO)O2)CN1 [DHAdC, 1-(2-Deoxy-β-D-ribofuranosyl)-4-amino-1,2,5,6-tetrahydro-1,3,5-triazin-2-one]
[1]
  EC50: 6 µM
[2]
  EC50: 6 µM
HIV
  passage after which no infectious virus was recovered: 12 passage
  passage by which p24 fell permanently below the limit of detection (4 ng/ml): ≤ 8 passage
[3]
  mutation frequency of cellular gene hgprt: did not increase above background
[4]
  toxicity: without any significant toxicity
